Series [1] can be described thus: Water solubility of drugs (saturation concentration by HPLC). It is filed as physicochemical. Particulars: 100 mM Tris-HCl (pH 7.5); for Water solubility: 25° C., saturation concentration; for Water solubility, relative ratio (numerals in parentheses): relative to TC11.
The subject of series [2] is MUM24 MM cell line. Briefly: MTT cell proliferation inhibition, MUM24. Type of series: cell-based. Particulars: Homo sapiens, MUM24, t(4;14), del13, del17, 48 hours, read-out: IC50, cell proliferation inhibitory activity, MUM24.
Series [3] has as its system KMS11 high-risk MM cell line. The series can be described thus: MTT cell proliferation inhibition, KMS11. To be noted: Homo sapiens, KMS-11, KMS11, t(4;14), del17, 48 hours, read-out: IC50, cell proliferation inhibitory activity, KMS11. It is filed as cell-based. The protocol:
(§1) For examination of cell proliferation inhibitory activity, high-risk MM cell lines (KMM1, KMS11, KMS21, KMS26, KMS28, KMS34) established by Takemi Otsuki et al., of Kawasaki Medical School were used (Otsuki, T. et al., Int. J. Oncol., 15: 1205-1212, 1999). […] The genetic abnormality of these cell types, and in particular deletion of p53 gene were examined by FISH method (Chang, H. Blood, 105: 358-360, 2005) (WO2010/061862A1). […] These high-risk MM cell lines were treated with drugs such as TC11, HOEtO-TC11, PEG11(E)-TC11, and PEG11(O)-TC11 at arbitrary concentrations. […] Specifically, each high-risk MM cell line was prepared at a concentration of 2×10^5 cells/ml, and then seeded in an amount of 50 μl (1×10^4 cells) per well. After 24 hours, drugs such as TC11, HOEtO-TC11, PEG11(E)-TC11, and PEG11(O)-TC11 having arbitrary concentrations were added. At 48 hours after addition of each drug, 10 μL each of an MTT labeling reagent in Cell Proliferation Kit I [MTT] (Roche Diagnostics, Basel, Switzerland) was added. After 4 hours of treatment at 37° C., 100 μL each of solution buffer was added and then left to stand overnight at 37° C. Absorbance was measured using a microplate reader Infinit™ M1000 (Tecan, Maennedorf, Switzerland) at a wavelength of 570 nm. Cell viability was found from an absorbance ratio using absorbance at 0 μM designated as 100%. IC50 was calculated from a semi-logarithmic chart using Microsoft (registered trademark) Excel.

In series [4] the test system is KMS21 high-risk MM cell line. Briefly: MTT cell proliferation inhibition, KMS21. Type of series: cell-based. Particulars: Homo sapiens, KMS21, t(11;14), 48 hours, read-out: IC50, cell proliferation inhibitory activity, KMS21. The protocol: as §1
Moreover, the concentration dependency of the in vitro cell proliferation inhibitory activity of TC11, and its derivatives, PEG11(E)-TC11 and HOEtO-TC11 against high-risk MM cell line (KMS21) was examined in detail (FIG. 4). […] Such a phenomenon was similarly observed for other high-risk MM cell lines, KMS11, KMS34, and MUM24.

For series [5], the target named is T1, cereblon (CRBN) (Homo sapiens, UniProt Q96SW2).
T1 construct: recombinant full-length CRBN prepared by the above method was reacted with the beads; T7 tag (N); FLAG tag (C); made in house; host or cells: 293T cells (pcDNA3.3 vector), RIPA extract purified on Ni Sepharose excel
T1 sequence (Q96SW2 whole entry): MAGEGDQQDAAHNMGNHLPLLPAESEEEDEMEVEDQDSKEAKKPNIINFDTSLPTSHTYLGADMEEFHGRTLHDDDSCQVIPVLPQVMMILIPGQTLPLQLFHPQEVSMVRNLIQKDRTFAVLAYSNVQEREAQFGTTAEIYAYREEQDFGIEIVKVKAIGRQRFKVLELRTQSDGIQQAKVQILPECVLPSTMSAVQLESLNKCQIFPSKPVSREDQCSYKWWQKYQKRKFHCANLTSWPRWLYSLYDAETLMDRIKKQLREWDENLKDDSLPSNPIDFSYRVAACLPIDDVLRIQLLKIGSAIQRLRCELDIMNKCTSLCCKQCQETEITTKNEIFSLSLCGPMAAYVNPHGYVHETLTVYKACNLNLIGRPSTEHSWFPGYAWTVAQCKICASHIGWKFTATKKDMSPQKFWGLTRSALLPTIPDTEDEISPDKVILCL
Briefly: Surface plasmon resonance biosensor (BIACORE 3000) interaction with cereblon. Type of series: binding. Particulars: measured at 1 μM, 2 μM and 10 μM, FIG. 9C. For orientation: SPR reads the build-up and loss of mass on a sensor chip optically.

Series [6] relates to KMS34 high-risk MM cell line. The series can be described thus: MTT cell proliferation inhibition, KMS34. To be noted: Homo sapiens, KMS-34, KMS34, t(4;14), del17, 48 hours, read-out: IC50, cell proliferation inhibitory activity, KMS34. Type of series: cell-based. The protocol:
as §1

Series [7] concerns high-risk MM cell lines. Briefly: MTT cell proliferation inhibition, panel of high-risk MM cell lines. It is filed as cell-based. Particulars: Homo sapiens, range over the cell lines of Table 2, 48 hours. The protocol:
as §1

For series [8], the system named is KMS26 high-risk MM cell line. The series can be described thus: MTT cell proliferation inhibition, KMS26. To be noted: Homo sapiens, KMS-26, KMS26, t(4;14), t(4;16), del17, 48 hours, read-out: IC50, cell proliferation inhibitory activity, KMS26. Type of series: cell-based. The protocol:
as §1

For series [9], the system named is KMM1 high-risk MM cell line. The series can be described thus: MTT cell proliferation inhibition, KMM1. Type of series: cell-based. Particulars: Homo sapiens, KMM-1, KMM1, t(6;14), t(8;14), del17, 48 hours, read-out: IC50, cell proliferation inhibitory activity, KMM1. The protocol: as §1
The subject of series [10] is KMS11 xenograft. The series can be described thus: Antitumor effect on KMS11 cancer-bearing mice (Example 17). Type of series: in vivo, ICR/SCID mice. The protocol: KMS11 was administered to 5-week-old ICR/SCID mice at 2×10^7 cells/mouse via hypodermic injection. Tumor volumes were measured over time, and the day on which the tumor volume exceeded 50 mm^3 was designated as Day 1 and observation was performed for 9 days. […] On the day of administration, these solutions were diluted 10-fold with physiological saline while stirring with Vortex, and then intraperitoneally administered. Tumor volume was calculated by the following formula.
Tumor volume (mm^3)=major axis×minor axis×minor axis×π/6=major axis×minor axis×minor axis×0.5236

Series [11] has as its system KMM1 high-risk MM cell line. The series can be described thus: WST-1 cell proliferation inhibition (Example 8), KMM1. Type of series: cell-based. To be noted: Homo sapiens, KMM-1, WST-1, 48 hours, read-out: IC50, cell proliferation inhibitory activity, KMM1. The protocol:
(§2) Similar to Example 7, high-risk MM cell lines were treated with drugs, TC11 and PEG5(E)-TC11 at arbitrary concentrations. […] Specifically, each high-risk MM cell line was prepared at 5×10^5 cells/ml, and then seeded at 50 μl per well (2.5×10^4 cells). Drugs such as TC11, and PEG5(E)-TC11 were added to wells at arbitrary concentrations. WST-1 reagent was added at 48 hours after addition of drugs. After 1 hour of reaction at 37° C. in a CO2 incubator, absorbance was measured at a wavelength of 450 nm using a microplate reader. Cell viability was found from an absorbance ratio using absorbance at 0 μM designated as 100%. IC50 was calculated from a semi-logarithmic chart using Microsoft (registered trademark) Excel.
(In general: Formazan colour is commonly taken as a measure of viable cells.)

Series [12] has as its system KMS11 high-risk MM cell line. Briefly: WST-1 cell proliferation inhibition (Example 8), KMS11. Type of series: cell-based. To be noted: Homo sapiens, KMS-11, WST-1, 48 hours, read-out: IC50, cell proliferation inhibitory activity, KMS11. The protocol:
as §2

Series [13] concerns high-risk MM cell lines. The series can be described thus: WST-1 cell proliferation inhibition (Example 8), panel of high-risk MM cell lines. Type of series: cell-based. To be noted: Homo sapiens; range over the cell lines of Table 3; WST-1, 48 hours. The protocol: as §2
Series [14] deals with KMS21 high-risk MM cell line. Briefly: WST-1 cell proliferation inhibition (Example 8), KMS21. To be noted: Homo sapiens, WST-1, 48 hours, read-out: IC50, cell proliferation inhibitory activity, KMS21. It is filed as cell-based. The protocol:
as §2

For series [15], the system named is KMS34 high-risk MM cell line. Briefly: WST-1 cell proliferation inhibition (Example 8), KMS34. Type of series: cell-based. Particulars: Homo sapiens, KMS-34, WST-1, 48 hours, read-out: IC50, cell proliferation inhibitory activity, KMS34. The protocol:
as §2

Series [16] concerns the target T1, cereblon (CRBN). Briefly: Pull-down assay of cereblon with biotinylated drug on streptavidin beads. It is filed as binding. To be noted: 30° C., 30 minutes, FIG. 9A. The protocol: CRBN was prepared as follows. A T7 tag was added 5′-upstream of, and a FLAG tag and a histidine tag were added 3′-downstream of a full-length CRBN gene. The gene was introduced into a pcDNA3.3 expression vector (Invitrogen), thereby constructing a plasmid DNA. Next, a Kozak sequence was added 5′-upstream of the T7 tag using a KOD-Plus-Mutagenesis Kit (TOYOBO). The plasmid DNA was transfected into 293T cells. After 4 days of culture at 37° C. with 5% CO2, cells were extracted with a RIPA buffer (Thermo), and then the extracted fraction was purified using Ni Sepharose excel (GE Healthcare). Since the purified fraction contained imidazole, TBS (Nacalai Tesque) was subjected to buffer exchange. […] Centrifugation was performed to separate the resultants into a flow-through (F) fraction and a bead (B) fraction. Protein bands corresponding to CRBN were separated by SDS-PAGE, and then detected by Western blot. […] Note that “I” indicates “Input fraction”.

Five compounds from patent publication US20190315775A1, “MODIFIED […] AND PHARMACEUTICAL COMPOSITION HAVING SAME AS ACTIVE INGREDIENT” (KEIO UNIVERSITY, priority 2016, published 2019) can be followed below.

Turning to `CC(C)c1cccc(C(C)C)c1N1C(=O)c2cc(N)c(OCCO[C@@H]3OC(CO)[C@@H](O)[C@H](O)C3O)cc2C1=O` (stereo partly drawn) [Glu-TC11], in series [1], the Water solubility was 0.082 g/100 ml and the “Water solubility, relative ratio (numerals in parentheses)” value (“Water solubility, relative ratio” for short) worked out at 41 ×.
Regarding `CC(C)c1cccc(C(C)C)c1N1C(=O)c2cc(N)c(OCCO)cc2C1=O` [HOEtO-TC11, hydroxyethoxy-TC11], the Water solubility in series [1] is listed as 0.027 g/100 ml. In addition, the “Water solubility, relative ratio” value in [1] came out at 13.5 ×. Further, the IC50 in series [2] was 4 µM; in [3], 3.9 µM; in series [4] it was 2400 nM; in series [6] it was 4.1 µM; in [7], 1 to 8 µM; in series [8], 1900 nM. In addition, in series [9], the IC50 is 7.7 µM. In addition, the “Binding to CRBN (SPR sensorgram)” value in series [5] is on record as “never bind to CRBN”. In [10] (Day 9, HOEtO-TC11 71.1 mg/kg BW i.p.), the “KMS-11 tumor growth, level relative to the control” value was “about ⅓”. The “KMS-11 tumor growth, level relative to TC11” value in series [10] (Day 9, HOEtO-TC11 71.1 mg/kg BW i.p. vs TC11 60 mg/kgBW) was “about a half”. Also, the “KMS-11 tumor growth compared to control mice” value in [10] (Day 9, i.p., equimolar to TC11 60 mg/kgBW) is “tumor growth was suppressed”.
`COCCOCCOCCOCCOCCC(=O)OCCOc1cc2c(cc1N)C(=O)N(c1c(C(C)C)cccc1C(C)C)C2=O` [PEG5(E)-TC11]: in [1], the Water solubility came to 0.002 g/100 ml. The “Water solubility, relative ratio” value in [1] came to 1 ×. The IC50 in [11] is 3.6 µM; in [12] it was 1400 nM; in series [13] it was 1300 to 4600 nM; in series [14], 1200 nM; in series [15], 6.5 µM.
With `Nc1cccc2c1CN(C1CCC(=O)NC1=O)C2=O` (stereo not drawn) [lenalidomide, reference compound], the “In vivo anti-tumor effect compared to HOEtO-TC11” value in series [10] (lenalidomide 49.9 mg/kgBW i.p., KMS11 xenograft) is on record as “clearly weaker than that of HOEtO-TC11”.
As to `O=C1CCC(N2C(=O)c3ccccc3C2=O)C(=O)N1` (stereo not drawn) [thalidomide], the “Binding of CRBN to drug immobilized on beads (pull-down, Western blot)” value in series [16] is “bound”.
